Tested on: nitrification in soil sampled fresh from a field (e.g. Limburgerhof)
Assay: Soil nitrification inhibition test (48 well plate, ammonium sulfate + NaClO3, colour reaction read at 540 nm)
Conditions: dose of 10 ppm, room temperature, up to 72 hrs
Protocol: Soil was sampled fresh from a field (e.g. Limburgerhof), dried and sieved through a 500 μm sieve. Approximately 200 mg of soil were placed into each well of a 48 well plate. Compounds, or DMSO alone, were added at a concentration of 10 ppm, dissolved in 1% DMSO. 6 μmol ammonium sulfate was added per well as well as 4.8 mg NaClO3.
Subsequently, the samples were incubated at room temperature for up to 72 hrs. After the incubation period 64 mg KCl were added and mixed. 25 μl of the supernatant were placed into a fresh plate and 260 μl of a color reaction solution (from Merck Nr 1.11799.0100) were added.
Measurements were taken with a Tecan plate Reader at 540 nm wavelength.
The inhibition in % is calculated by the equation [(a−b)/a]×100, wherein a is the nitrification rate in the presence of the control (which is assumed to be 100%), and b is the nitrification rate in the presence of the tested compound.

C#CCOc1ccc(Cl)cc1
Rating (inhibition; best rating obtained for a compound): 59%

C#CCOc1ccc(OCC#C)cc1
Rating (inhibition; best rating obtained for a compound): 66%

C#CCOc1cc(N)c(F)cc1Cl
Rating (inhibition; best rating obtained for a compound): 62%

C#CCOc1ccc(C(=O)N2CCOCC2)cc1
Rating (inhibition; best rating obtained for a compound): 57%

C#CCOc1ccc(NC(=O)N(C)C)cc1Cl
Rating (inhibition; best rating obtained for a compound): 55%

C#CCOc1ccc(OC)cc1
Rating (inhibition; best rating obtained for a compound): 58%

C#CCOc1cc(NC=O)c(F)cc1Cl
Rating (inhibition; best rating obtained for a compound): 48%

C#CCOc1ccc(C#N)cc1
Rating (inhibition; best rating obtained for a compound): 53%

C#CCOc1cccc(C(O)C#C)c1 (stereo not shown)
Rating (inhibition; best rating obtained for a compound): 61%

C#CCOc1cc(NC(=S)N(N)CCO)c(F)cc1Cl
Rating (inhibition; best rating obtained for a compound): 56%

— patent US20170036969A1, “NITRIFICATION INHIBITORS” (BASF SE, priority 2014, published 2017)
